ChEMBL document CHEMBL1201862, “PubChem BioAssay data set” (2004)
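Where inhibition never reached the appropriate level, the endpoint shown equals the highest concentration tested. Otherwise, values were interpolated linearly from a five-concentration, 48-hour dose response in 96-well plates. GI50: concentration for 50% inhibition of growth.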 The source made the active and inactive calls. Cut-off read from the data, not from the text of the source: active = GI50 up to about 1.1 µM and inactive = higher.

Assays:
Assay in all cases: growth of human tumour cells (NCI), 48 h
SW-620 = test system: SW-620
NCI-H522 = test system: NCI-H522
SNB-75 = test system: SNB-75
HCT-116 = test system: HCT-116
SF-539 = test system: SF-539
UACC-257 = test system: UACC-257
HOP-92 = test system: HOP-92
SK-MEL-2 = test system: SK-MEL-2
Malme-3M = test system: Malme-3M
SK-MEL-28 = test system: SK-MEL-28
UO-31 = test system: UO-31
NCI-H226 = test system: NCI-H226
TK-10 = test system: TK-10
LOX IMVI = test system: LOX IMVI
SF-295 = test system: SF-295
HT-29 = test system: HT-29
HCT-15 = test system: HCT-15
HOP-62 = test system: HOP-62

SMILES | GI50 (SW-620) | GI50 (NCI-H522) | GI50 (SNB-75) | GI50 (HCT-116) | GI50 (SF-539) | GI50 (UACC-257) | GI50 (HOP-92) | GI50 (SK-MEL-2) | GI50 (Malme-3M) | GI50 (SK-MEL-28) | GI50 (UO-31) | GI50 (NCI-H226) | GI50 (TK-10) | GI50 (LOX IMVI) | GI50 (SF-295) | GI50 (HT-29) | GI50 (HCT-15) [µM] | GI50 (HOP-62)
CCOC(=O)/C(Br)=C1\OC(=O)c2ccccc2-c2ccccc21 | 42.5 µM (inactive) | 23 µM (inactive) | 26.4 µM (inactive) | 43.3 µM (inactive) | 25.1 µM (inactive) | 58.5 µM (inactive) | 24.3 µM (inactive) | 64 µM (inactive) | 47.2 µM (inactive) | 61.4 µM (inactive) | 38.7 µM (inactive) | 23.4 µM (inactive) | 60.7 µM (inactive) | 36.8 µM (inactive) | 36.5 µM (inactive) | 33.2 µM (inactive) | 48.4 | 24.2 µM (inactive)
c1ccc2c3c([nH]c2c1)C1(CCCCC1)c1c([nH]c2ccccc12)C31CCCCC1 | > 100 µM (inactive) | 30 µM (inactive) | 15.9 µM (inactive) | 15.7 µM (inactive) | – | 50.4 µM (inactive) | 20.4 µM (inactive) | 18.8 µM (inactive) | 23.1 µM (inactive) | 37.1 µM (inactive) | 29 µM (inactive) | 27.5 µM (inactive) | 30.9 µM (inactive) | 34.4 µM (inactive) | 24.7 µM (inactive) | > 100 µM (inactive) | > 100 | 19.5 µM (inactive)
O=[N+]([O-])c1ccc(N2C[N+](c3ccccc3)=NC(c3ccccc3)=N2)cc1 | 68.4 µM (inactive) | 25.6 µM (inactive) | 99.3 µM (inactive) | 23.3 µM (inactive) | 72.3 µM (inactive) | 38.5 µM (inactive) | 35.7 µM (inactive) | 20.5 µM (inactive) | 91.2 µM (inactive) | > 100 µM (inactive) | 17.3 µM (inactive) | > 100 µM (inactive) | 40.7 µM (inactive) | 26.1 µM (inactive) | 35.6 µM (inactive) | 43.9 µM (inactive) | 28.6 | 17.8 µM (inactive)
O=C(O)CSc1nnc(-c2ccc(O)cc2)[nH]1 | > 100 µM (inactive) | > 100 µM (inactive) | 41 µM (inactive) | > 100 µM (inactive) | > 100 µM (inactive) | > 100 µM (inactive) | > 100 µM (inactive) | > 100 µM (inactive) | > 100 µM (inactive) | > 100 µM (inactive) | > 100 µM (inactive) | > 100 µM (inactive) | > 100 µM (inactive) | – | > 100 µM (inactive) | > 100 µM (inactive) | > 100 | > 100 µM (inactive)
COc1ccc(OCC(=O)O)c2c1CCC(C(C)C)C2=O (stereo unspecified) | > 100 µM (inactive) | > 100 µM (inactive) | – | > 100 µM (inactive) | > 100 µM (inactive) | > 100 µM (inactive) | 80.2 µM (inactive) | > 100 µM (inactive) | > 100 µM (inactive) | > 100 µM (inactive) | > 100 µM (inactive) | – | > 100 µM (inactive) | > 100 µM (inactive) | > 100 µM (inactive) | > 100 µM (inactive) | – | > 100 µM (inactive)
Cc1nc2ccccc2c(=O)[nH]1 | > 100 µM (inactive) | > 100 µM (inactive) | 37.1 µM (inactive) | > 100 µM (inactive) | > 100 µM (inactive) | > 100 µM (inactive) | > 100 µM (inactive) | > 100 µM (inactive) | > 100 µM (inactive) | > 100 µM (inactive) | > 100 µM (inactive) | > 100 µM (inactive) | > 100 µM (inactive) | > 100 µM (inactive) | > 100 µM (inactive) | > 100 µM (inactive) | > 100 | > 100 µM (inactive)
Cc1c(C(=O)/C=C/c2ccc(Cl)cc2)[n+]([O-])c2ccccc2[n+]1[O-] | 8.69 µM (inactive) | 3.78 µM (inactive) | 15.3 µM (inactive) | 5.93 µM (inactive) | 12.1 µM (inactive) | 15.8 µM (inactive) | 15 µM (inactive) | – | 19.6 µM (inactive) | 17 µM (inactive) | 16.1 µM (inactive) | 16.4 µM (inactive) | 18.2 µM (inactive) | 7.28 µM (inactive) | 12.2 µM (inactive) | 12.9 µM (inactive) | 9.23 | 26.5 µM (inactive)
CC(=O)OC(/C=C1/C=CC(=O)O1)COC(=O)c1ccccc1 (stereo unspecified) [ACETYLMELODORINOL] | > 31.2 µM (inactive) | > 31.2 µM (inactive) | > 31.2 µM (inactive) | > 31.2 µM (inactive) | > 31.2 µM (inactive) | > 31.2 µM (inactive) | > 31.2 µM (inactive) | – | > 31.2 µM (inactive) | > 31.2 µM (inactive) | > 31.2 µM (inactive) | > 31.2 µM (inactive) | > 31.2 µM (inactive) | > 31.2 µM (inactive) | > 31.2 µM (inactive) | > 31.2 µM (inactive) | – | > 31.2 µM (inactive)
